# Experimental data reported in ChEMBL document CHEMBL1817621, “SAR studies of acidic dual γ-secretase/PPARγ modulators” (Bioorg Med Chem, 2011).
# pEC50, pIC50: −log10 of the molar value. Activity calls are given as the source filed them. No cut-off for these calls is given here.
# Tests used:
# [1] = target: T1, Peroxisome proliferator-activated receptor alpha (Homo sapiens) (UniProt Q07869); assay: Modulation of human PPARalpha-LBD expressed in african green monkey COS7 cells co-transfected with Gal4 assessed as activation of transactivation activity at 10 uM by luciferase assay; format: cell-based; conditions: COS-7
# T1 sequence (whole entry): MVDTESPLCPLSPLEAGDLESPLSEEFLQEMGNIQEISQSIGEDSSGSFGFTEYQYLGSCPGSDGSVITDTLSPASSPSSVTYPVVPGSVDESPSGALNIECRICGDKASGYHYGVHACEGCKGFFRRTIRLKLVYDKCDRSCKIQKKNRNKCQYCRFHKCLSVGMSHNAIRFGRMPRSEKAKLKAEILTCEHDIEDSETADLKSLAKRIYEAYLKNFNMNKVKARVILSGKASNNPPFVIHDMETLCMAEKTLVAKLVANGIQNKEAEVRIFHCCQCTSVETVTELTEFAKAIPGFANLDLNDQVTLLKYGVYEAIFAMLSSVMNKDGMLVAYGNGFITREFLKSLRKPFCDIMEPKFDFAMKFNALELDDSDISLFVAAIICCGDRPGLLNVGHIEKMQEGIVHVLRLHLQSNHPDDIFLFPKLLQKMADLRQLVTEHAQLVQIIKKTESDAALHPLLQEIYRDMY
# [2] = target: T2, Prostaglandin G/H synthase 1 (Ovis aries) (UniProt P05979); assay: Inhibition of ovine COX-1 assessed as residual activity by measuring formation of 12-HHT from arachidonic acid at 10 uM by HPLC analysis
# T2 sequence (whole entry): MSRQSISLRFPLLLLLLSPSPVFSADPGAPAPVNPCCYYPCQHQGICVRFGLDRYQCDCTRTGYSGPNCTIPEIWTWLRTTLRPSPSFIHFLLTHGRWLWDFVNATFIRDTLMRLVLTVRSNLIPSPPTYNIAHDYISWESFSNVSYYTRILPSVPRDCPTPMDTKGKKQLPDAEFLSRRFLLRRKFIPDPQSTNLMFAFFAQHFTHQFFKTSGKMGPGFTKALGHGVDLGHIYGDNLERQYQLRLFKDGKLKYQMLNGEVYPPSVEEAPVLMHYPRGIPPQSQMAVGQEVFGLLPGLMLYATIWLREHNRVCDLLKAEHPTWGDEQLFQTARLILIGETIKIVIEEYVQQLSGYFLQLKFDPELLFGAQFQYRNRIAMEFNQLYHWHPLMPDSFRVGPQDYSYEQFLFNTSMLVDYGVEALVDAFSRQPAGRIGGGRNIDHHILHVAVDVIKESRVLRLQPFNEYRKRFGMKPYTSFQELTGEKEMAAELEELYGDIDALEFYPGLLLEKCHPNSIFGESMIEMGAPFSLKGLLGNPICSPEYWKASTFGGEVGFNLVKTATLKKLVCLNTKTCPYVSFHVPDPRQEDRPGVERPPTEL
# [3] = Modulation of gamma-secretase expressed in CHO cells co-expressing human APP and wild type human presenilin-1 assessed as increase of amyloid beta38 production by ELISA; format: cell-based
# [4] = test system: CHO; assay: Inhibition of gamma-secretase-mediated notch signaling expressed in CHO cells transfected with Gal4-DNA-binding/VP16 transactivation domain assessed as reduction of reporter activity up to 30 uM by luciferase assay; format: cell-based
# [5] = target: T3, Peroxisome proliferator-activated receptor delta (Homo sapiens) (UniProt Q03181); assay: Modulation of human PPARdelta-LBD expressed in african green monkey COS7 cells co-transfected with Gal4 assessed as activation of transactivation activity at 10 uM by luciferase assay; format: cell-based; conditions: COS-7
# T3 sequence (whole entry): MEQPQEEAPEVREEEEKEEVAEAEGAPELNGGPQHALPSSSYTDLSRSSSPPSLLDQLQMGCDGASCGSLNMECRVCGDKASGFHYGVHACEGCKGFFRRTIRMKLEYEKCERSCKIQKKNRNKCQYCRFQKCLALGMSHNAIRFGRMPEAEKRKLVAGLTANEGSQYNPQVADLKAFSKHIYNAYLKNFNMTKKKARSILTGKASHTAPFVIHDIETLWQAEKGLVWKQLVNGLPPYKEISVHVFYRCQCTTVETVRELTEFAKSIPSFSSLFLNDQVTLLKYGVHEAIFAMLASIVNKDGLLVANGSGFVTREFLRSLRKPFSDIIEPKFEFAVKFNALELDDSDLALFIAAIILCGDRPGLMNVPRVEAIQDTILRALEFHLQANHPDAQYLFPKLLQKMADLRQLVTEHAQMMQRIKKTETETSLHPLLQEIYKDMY
# [6] = test system: CHO; assay: Cytotoxicity against CHO cells expressing human APP and wild type human presenilin-1 assessed as reduction of cell viability up to 40 uM after 24 hrs by Alamar blue assay; format: cell-based, Cricetulus griseus; conditions: chinese hamster
# [7] = target: T4, Prostaglandin G/H synthase 2 (Homo sapiens) (UniProt P35354); assay: Inhibition of human recombinant COX-2 assessed as residual activity by measuring formation of 12-HHT from arachidonic acid at 10 uM by HPLC analysis
# T4 sequence (whole entry): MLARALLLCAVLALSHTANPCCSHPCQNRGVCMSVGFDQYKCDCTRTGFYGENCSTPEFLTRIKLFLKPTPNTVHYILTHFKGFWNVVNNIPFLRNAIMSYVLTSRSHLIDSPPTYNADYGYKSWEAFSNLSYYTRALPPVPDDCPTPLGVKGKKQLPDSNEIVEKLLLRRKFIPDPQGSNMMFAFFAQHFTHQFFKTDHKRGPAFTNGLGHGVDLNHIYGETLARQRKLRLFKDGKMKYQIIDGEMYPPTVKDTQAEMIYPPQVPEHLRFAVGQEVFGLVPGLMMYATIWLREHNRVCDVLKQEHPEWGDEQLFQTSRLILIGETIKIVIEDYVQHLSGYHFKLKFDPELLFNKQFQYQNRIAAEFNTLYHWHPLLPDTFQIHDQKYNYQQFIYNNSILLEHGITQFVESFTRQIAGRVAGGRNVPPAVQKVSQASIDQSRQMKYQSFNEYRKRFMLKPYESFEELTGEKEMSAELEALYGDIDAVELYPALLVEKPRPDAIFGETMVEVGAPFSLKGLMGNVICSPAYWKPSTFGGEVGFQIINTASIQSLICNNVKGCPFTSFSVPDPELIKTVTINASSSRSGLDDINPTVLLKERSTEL
# [8] = Selectivity ratio of inhibition of gamma-secretase-mediated notch signaling to modulation of gamma-secretase
# [9] = target: T5, Peroxisome proliferator-activated receptor gamma (Homo sapiens) (UniProt P37231); assay: Modulation of human PPARgamma-LBD expressed in african green monkey COS7 cells co-transfected with Gal4 assessed as activation of transactivation activity at 10 uM by luciferase assay; format: cell-based; conditions: COS-7
# T5 sequence (whole entry): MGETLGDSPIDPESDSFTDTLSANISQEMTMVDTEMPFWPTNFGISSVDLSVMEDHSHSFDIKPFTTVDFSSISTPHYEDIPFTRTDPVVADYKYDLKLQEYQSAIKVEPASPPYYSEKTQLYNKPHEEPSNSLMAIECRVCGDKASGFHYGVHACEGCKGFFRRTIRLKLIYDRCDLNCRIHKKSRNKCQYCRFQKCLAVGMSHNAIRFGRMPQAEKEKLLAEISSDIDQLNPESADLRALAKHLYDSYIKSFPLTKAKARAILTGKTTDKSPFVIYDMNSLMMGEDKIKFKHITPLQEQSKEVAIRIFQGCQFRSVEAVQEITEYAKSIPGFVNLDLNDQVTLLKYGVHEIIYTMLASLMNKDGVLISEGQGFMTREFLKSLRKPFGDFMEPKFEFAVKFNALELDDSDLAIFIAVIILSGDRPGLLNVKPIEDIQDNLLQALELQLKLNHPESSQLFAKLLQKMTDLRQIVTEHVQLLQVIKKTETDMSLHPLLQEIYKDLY
# [10] = Modulation of gamma-secretase expressed in CHO cells co-expressing human APP and wild type human presenilin-1 assessed as inhibition of amyloid beta42 production by ELISA; format: cell-based
# [11] = Modulation of gamma-secretase expressed in CHO cells co-expressing human APP and wild type human presenilin-1 assessed as reduction of amyloid beta38 production by ELISA
# [12] = target: T6, Prostaglandin G/H synthase 1 (Ovis aries, UniProt P05979)
# T6 sequence (P05979 whole entry): T2 sequence (whole entry)
# Description: Inhibition of ovine COX-1 assessed as residual activity by measuring formation of 12-HHT from arachidonic acid by HPLC analysis
Activity [1],Activity [2],pEC50 [3],Activity [5],Activity [7],Ratio [8],Activity [9],pIC50 [10],pIC50 [11],pIC50 [12],SMILES,inhibition [4],Activity [6]
inactive,76.4%,5.51,inactive,123%,8,75%,5.41,–,–,CCCC/C(=C\c1cc(OCCC2CCCCC2)ccc1OCCC1CCCCC1)C(=O)O,inactive,Non-toxic
inactive,99.1%,–,inactive,110%,–,inactive,–,5.30,–,CCCCC(Cc1ccc(OCCc2ccccc2)cc1OCCc1ccccc1)C(=O)O (stereo not drawn),–,Non-toxic
–,–,–,–,–,–,–,–,–,4.78,CCCCC(Sc1nc(OCCc2ccccc2)cc(OCCc2ccccc2)n1)C(=O)O (stereo not drawn),–,–
